Data on 87 compounds can be found in ChEMBL document CHEMBL1157539, “Thousands of chemical starting points for antimalarial lead identification” (Nature, 2010).

The test system of this test is Plasmodium falciparum. Put plainly: GSK_TCMDC: Inhibition of Plasmodium falciparum 3D7 in whole erythrocytes, using parasite LDH activity as an index of growth. To be noted: Plasmodium falciparum, 3D7. Format: functional, organism-based.
With `COc1ccc2[nH]cc(C3=CCN(Cc4ccccc4)CC3)c2c1`, the XC50 was found to be 569 nM. For `ON=C1CCc2cc(-c3cc(-c4ccc(OC5CCNCC5)cc4)oc3-c3ccncc3)ccc21`, the XC50 is 157 nM. To `CCN(CC)CCNc1ccnc2[nH]c3ccc(C)cc3c12` belongs 669 nM; to `NCCC(=O)Nc1ccc(-c2cnc3[nH]cc(-c4ccc(C(=O)O)cc4)c3c2)cn1`, 842 nM. Consider `N#Cc1ccc(N/C(=N\c2cccc(Cl)c2Cl)NC2Cc3ccccc3C2)c(O)c1`, for which the XC50 is 832 nM. In turn, `CN(C)CCNCc1cccc(-c2ccc3c(Nc4cc(O)c(Cl)cc4F)ccnc3c2)c1` registered an XC50 of 549 nM. As for `CC(C)n1nc(C(=O)N2CCN(c3ccccc3)CC2)c2ccccc2c1=O`, the XC50 came out at 979 nM. The compound `CNC(=O)COC(=O)c1c2c(nc3ccccc13)C(=Cc1ccc3c(c1)OCO3)CCC2` came in with an XC50 of 643 nM. The same measure for `CC(C)(C)c1ccc(-c2cc3c(ccc4nc(N)nc(N)c43)[nH]2)cc1`: 113 nM; for `N=C(N)NC(=O)Nc1cc(Br)c(Cl)c(C(F)(F)F)c1`: 758 nM.

`CCOc1ccc(Nc2ccc3nonc3c2S(=O)(=O)Nc2ccc(OCC)cc2)cc1` returned an XC50 of 505 nM. On to `O=C(Nc1nc(-c2cc(F)ccc2F)cs1)c1cncc(Br)c1`, for which the XC50 came to 1080 nM.

The compound `Cc1nc(-c2cccc(Nc3ccnc4cc(-c5nccs5)ccc34)c2)no1` gave an XC50 of 322 nM. Consider `N=C(N)Nc1nc(-c2cccc(NC(=O)NCc3cccc4ccccc34)c2)cs1`, for which the XC50 came to 841 nM. For the compound `N=C(N)NC(=O)Nc1cc(Br)c(Br)c(Br)c1`, the XC50 is 809 nM. On to `CCc1ccc(NC(=O)N(CCCn2ccnc2)Cc2csc(-c3ccc(CNCc4ccccc4)cc3)n2)cc1`, for which the XC50 came to 757 nM. `COc1ccc(-c2nc3cc4ccccc4nc3[nH]2)c(OCC(O)CNC(C)C)c1` (configuration not stated) registered an XC50 of 694 nM. To `Cc1ccc(C2CCN(CCCCNC(=O)c3ccc(-c4ccc(C#N)cc4)cc3)CC2)c(O)c1` belongs 292 nM; to `COc1ccc2ncc(F)c([C@H](O)CN3CCC(NCc4cc5c(cn4)OCCO5)CC3)c2c1`, 292 nM; to `O=C(NCCCCN1CCC(c2ccc3ccccc3c2)CC1)c1ccc(NC(=O)c2ccc(Cl)cc2)cc1`, 226 nM. In turn, `CCCc1cn2c3c(cc(C(=O)N[C@@H](Cc4ccccc4)[C@H](O)CNC4CCOCC4)cc13)N(C)S(=O)(=O)CC2` gave an XC50 of 47.7 nM. The same measure for `COCCNCc1cccc(-c2ccc3c(Nc4ccc(Oc5ccccc5)cc4)ccnc3c2)c1`: 517 nM; for `CCN(c1cc(C)nc(Nc2ccc(Cl)cc2)n1)[C@H]1CCN(Cc2ccccc2)C1`: 855 nM.

In the case of `COc1cccc2c(NN=Cc3cccc(F)c3)ccnc12`, the XC50 is 932 nM. To `O=[N+]([O-])c1cccc(CNCC2CCN(Cc3ccc(Cl)c(Cl)c3)CC2)c1` belongs 913 nM. To `O=C(Nc1ccc([N+](=O)[O-])cc1Cl)c1cc2ccccc2cc1O` belongs 1010 nM. To `COc1cccc(CNC[C@@H](O)[C@H](Cc2ccccc2)NC(=O)c2cc(C3CCCC3)cc(N3CCCCS3(=O)=O)c2)c1` belongs 599 nM. For the compound `CN(C)CCOc1cc(NC(=O)Nc2ccc(Cl)cc2C(F)(F)F)ccc1I`, the XC50 was 930 nM. `Oc1cccc(Nc2nc(NCC3CCCO3)c3ccccc3n2)c1` (configuration not stated) showed an XC50 of 812 nM.

`O=C(c1ccc(F)cc1)N1CCOC(CCN2CCC(c3ccccc3)CC2)(c2ccc(Cl)c(Cl)c2)C1` (configuration not stated): the XC50 stood at 749 nM. The same measure for `CN(CCCCN)Cc1ccc(-c2ccc(Cl)cc2)cc1`: 882 nM; for `Cc1sc(CNCCCNc2cc(=O)c3ccccc3[nH]2)cc1Br`: 764 nM; for `Cc1nc(C)c(-c2ccc(Oc3ccc(OC(F)(F)F)cc3)cc2)c(OC(=O)N(CCNC(C)C)C(C)C)c1Br`: 171 nM.

Compound `CNCCNCc1ccc(-c2ccc(-c3nc4ccccc4[nH]3)s2)cc1` showed an XC50 of 865 nM. For `O=C(Nc1ccc2oc(-c3ccc(Cl)cc3Cl)nc2c1)c1ccc([N+](=O)[O-])o1`, the XC50 came to 1100 nM. The same measure for `CC(C)(C)c1ccc(CNC(=O)/C=C/c2ccc(-c3nc4cc(C(C)(C)C)ccc4[nH]3)cc2)cc1`: 545 nM; for `Cc1cccc(C=NN=c2cc(C)[nH]c3ccc(F)cc23)n1`: 1000 nM; for `CC(C)C1=C[C@H]2C[C@]3(C4OCCO4)[C@@H]4CC[C@@H](C)[C@H]4C[C@@]2(COCc2cccc(C#N)c2)[C@]13C(=O)OC(c1ccccc1)c1ccccc1`: 1790 nM. The same measure for `O=C(Cc1ccc(NC(=O)c2ccc(O)c(-c3ccc(Cl)c(Cl)c3)c2)cc1)NCCN1CCCCC1`: 841 nM; for `O=c1cc(NCCCNCc2scc(I)c2I)[nH]c2ccccc12`: 586 nM.

`Cc1cccc(C)c1CNc1ccnc2cc(Br)ccc12` gave an XC50 of 172 nM.

For `N#Cc1ccc2c(c1)CCN(CCC1CCC(NC(=O)/C=C/c3cnc4ccccc4c3)CC1)CC2` (configuration not stated), the XC50 was found to be 1210 nM.

Compound `NC(=O)C1CCN(Cc2ccc(-c3ccc(-c4nc5cc(F)ccc5[nH]4)cc3)cc2)CC1` gave an XC50 of 809 nM. For `COc1ccc(Cl)cc1N1CCN(CCCNC(=O)c2ccc(-c3nc4cc5ccccc5cc4[nH]3)c(F)c2)CC1`, the XC50 worked out at 804 nM. Take `Cc1noc(C)c1-c1ccc2c(Nc3ccccc3C(C)(C)C)c(C(=O)NCc3ccc(C(F)(F)F)cc3)cnc2c1`: the XC50 was 762 nM. To `COc1cc(NC(=O)c2ccc3oc4ccccc4c3c2)ccc1OCCN1CCCCC1` belongs 924 nM. The same measure for `Cc1cccc2nc(-c3ccc(-c4cccc(NC(=O)CCc5c[nH]cn5)c4)s3)[nH]c12`: 838 nM.

For the compound `Fc1ccc(C=NNc2nc3ccccc3[nH]2)cc1`, the XC50 came out at 783 nM.

Regarding `Oc1cccc(Nc2ccnc3cc(-c4cc5ccccc5o4)ccc23)c1`, the XC50 turned out to be 763 nM.

Compound `O=C(Nc1cccc(F)c1)NC1CCN(c2ccnc3cc(Cl)ccc23)C1` (configuration not stated) showed an XC50 of 189 nM. The same measure for `CN1CCN(c2cc(-c3cccc(C(F)(F)F)c3)nc(-c3ccncc3)n2)CC1`: 731 nM. For the compound `c1ccc(-n2ncc(CNCc3ccc(-c4cccc(-c5nc6ccccc6[nH]5)c4)cc3)n2)cc1`, the XC50 turned out to be 1230 nM. To `CCCCCCn1c(Sc2ccc(C#N)c([N+](=O)[O-])c2)nnc1-c1ccc(N(C)C)cc1` belongs 1070 nM. For `Cc1ccc(Nc2nc(N)c3ccccc3n2)cc1`, the XC50 came to 839 nM. In turn, `CN(Cc1cc(C(F)(F)F)cc(C(F)(F)F)c1)C(=O)C1CNCC1c1ccc(F)cc1` (configuration not stated) displayed an XC50 of 828 nM. The same measure for `Oc1ccc(OCc2ccccn2)cc1`: 980 nM.

Compound `CNC(=O)CSc1nnc(-c2ccc(C)cc2)c(-c2ccc(C)cc2)n1` gave an XC50 of 600 nM. To `CCNc1cc(C)nc(Nc2ccc(NS(=O)(=O)c3cc(OC)ccc3OC)cc2)n1` belongs 853 nM. The compound `CCCCCCNC(=O)C1Cc2c([nH]c3ccc(C)cc23)C2(CCN(Cc3ccccc3)CC2)N1` (configuration not stated) yielded an XC50 of 982 nM.

In turn, `O=C(Nc1ccc2c(c1)CCN(C1CCC1)CC2)c1ccc(-n2ccnc2)cn1` gave an XC50 of 373 nM. To `CCCCCCCCNc1c2ccc(Cl)cc2nc2ccc(OC)cc12` belongs 805 nM. To `CCCCCCOc1ccc2ccccc2c1CNCCCCCCNCc1c(OCCCCCC)ccc2ccccc12` belongs 1060 nM; to `Cc1c(Cl)cccc1N=C(S)NN=Cc1ccccn1`, 603 nM; to `CCCN(CCC)CCCNc1ccc(C(=O)Nc2ccc(C(C)C)cc2)cc1[N+](=O)[O-]`, 709 nM. As to `CN1CCCC(COc2cc3c(cc2Br)CCN3C(=O)Nc2ccc(-c3ccncc3)c(Cl)c2)C1` (configuration not stated), the XC50 turned out to be 234 nM.

In turn, `CCn1ncc2c(N3CCCC3=O)cc(C(=O)N[C@@H](Cc3ccccc3)[C@H](O)CNC(C)(C)c3cccc(C(F)(F)F)c3)cc21` yielded an XC50 of 149 nM. For the compound `Cc1cccc2nc(-c3cccc(-c4ccc(NC(=O)Nc5cccc(C#N)c5)cc4)c3)[nH]c12`, the XC50 is 187 nM. To `CCOc1cc(C)ccc1C1CCN(CCCCNC(=O)c2ccc(-c3ccc(Cl)cn3)cc2)CC1` belongs 1610 nM; to `O=c1c2sc(-c3ccc(Cl)cc3)cc2ncn1Cc1ccc(OCCN2CCCC2)c2ccccc12`, 252 nM. The same measure for `CN(CC(=O)Nc1ccc(F)c(F)c1F)c1ncnc2sc(-c3ccccc3)cc12`: 874 nM; for `COC(=O)c1ccc(-c2ccc(C(=O)NCC3CCN(c4nc(N)c5cc(OC)c(OC)cc5n4)CC3)cc2)cc1`: 185 nM; for `CN1CCN(c2ccc(Nc3c(C(N)=O)cnc4cc(-c5ccoc5)ccc34)cc2C(F)(F)F)CC1`: 785 nM. To `Cc1nc(-c2ccc(-c3ccc(C(=O)Nc4ccc(I)c(OCC5CCCN5C)c4)cc3)c(C)c2)no1` (configuration not stated) belongs 33 nM. `Cn1cncc1C(=O)Nc1cccc(-c2ccc(-c3nc4cc(C(F)(F)F)ccc4[nH]3)cc2)c1` gave an XC50 of 509 nM. For `O=C(Cc1c[nH]cn1)Nc1ccc(-c2ccc(-c3nc4ccccc4[nH]3)s2)cc1`, the XC50 came out at 1060 nM.

`O=C1COc2ccc(S(=O)(=O)N3CCC[C@@H]3CCN3CCC(c4c[nH]c5cnccc45)CC3)cc2N1` came in with an XC50 of 865 nM. The same measure for `O=C(N[C@H]1CCN(Cc2ccc(OC3CCN(Cc4ccccc4)CC3)c(Br)c2)C1)c1ccc(Cl)c(Cl)c1`: 783 nM; for `CC1CC(NCCCNc2cc(=O)c3ccccc3[nH]2)c2c(Cl)c(Cl)cc(Cl)c21` (configuration not stated): 981 nM; for `CN(C)Cc1ccc(-c2ccc3c(Nc4ccc(Cl)cc4F)ccnc3c2)o1`: 241 nM.

Compound `COc1cccc(C2CCN(CCCCNC(=O)c3ccc(NC(=O)c4ccc(Cl)cc4)cc3)CC2)c1` yielded an XC50 of 965 nM. Consider `COCCNCc1ccc(-c2cccc(CN(C(=O)CCC3CCCC3)C3CCN(Cc4ccccc4)CC3)c2)cc1`, for which the XC50 turned out to be 938 nM. The same measure for `CNCc1ccc(-c2ccc3ccnc(N)c3c2)cc1`: 262 nM. To `Cc1cc(N[C@@H](Cc2ccccc2)C(=O)NC2CCCC2)nc(NCCCOC(C)C)n1` belongs 1480 nM; to `O=C(Nc1ccc2c(c1)CCCN2S(=O)(=O)c1cccs1)c1cc([N+](=O)[O-])ccc1Cl`, 845 nM; to `CN(C)CCOC(=O)C1(O)CCC2CC1C2(C)C` (configuration not stated), 984 nM. To `Cc1nc(C)c(-c2ccc(Oc3ccc(OC(F)(F)F)cc3)cc2)c(OC(=O)c2ccc(CN(C)C)cc2)c1Cl` belongs 137 nM; to `CCCOc1ccc(C(F)(F)F)cc1NC(=O)c1nc2nc(C)cc(C)n2n1`, 251 nM.
